Patent US11865146B2 (priority 2015, dated 2024)

Test system: C. difficile strain 630
Conditions: BDM without glucose
Experimental: All strains for this study were maintained inside an anaerobic growth chamber with a gas mixture of 75% N2/20% CO2/5% H2 (Coy Lab Products, Grass Lake, MI). Liquid and solid growth media was allowed to reduce in the anaerobic chamber for a minimum of 24 hours prior to use. For transfer out of the chamber, liquid stocks were sealed in sterile, gas-tight crimp cap glass vials. C. difficile strain 630 was maintained at 37° C. on Clostridium difficile Moxalactam Norfloxacin (CDMN) blood agar plates (Aspinall et al. 1992 J Clin Pathol. 45:812-814), in Reinforced Clostridial Medium (RCM) broth (Difco DF1808173), or in Basal Defined Medium (BDM) (Karasawa et al. 1995 Microbiology. 141:371-375) broth. C. difficile amino acid (AA) utilization was assessed using modified BDM containing ½ or ¼ of the standard AA content. Proline utilization was assessed in modified BDM lacking glucose and proline. Bacterial growth rates were assessed using a BioTek Eon microplate spectrophotometer (BioTek, Winooski, VT).

O=C(O)[C@@H]1CCCN1 [proline]
C. difficile growth in the absence of proline: unable to grow
